How the values were obtained:
Test in all cases: relative viability (nuclei count vs DMSO), 5 days (fraction); higher = more cells survive
[1] = compound: CCn1c(-c2nonc2N)nc2c(C#CC(C)(C)O)ncc(OC[C@H]3CCCNC3)c21 + O=C(c1cc(Cc2n[nH]c(=O)c3ccccc23)ccc1F)N1CCN(C(=O)C2CC2)CC1 [Olaparib] (partner 8 µM)
Summary of the method: (§1)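 Relative viability was taken as the ratio of nuclei in treated wells to nuclei in vehicle wells. Lung cancer cell lines in 1536-well plates received compounds by pin tool one day after seeding, either one drug alone or a fixed anchor-drug dose plus five library-drug doses (not always all listed) in √10 steps. Nuclei were counted on 4× images after 5 days of treatment, and values are medians of duplicate plates.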

BAM7 + Tozasertib = compound: CCOC1=CC=CC=C1N=NC2=C(NN(C2=O)C3=NC(=CS3)C4=CC=CC=C4)C [BAM7] + Cc1cc(Nc2cc(N3CCN(C)CC3)nc(Sc3ccc(NC(=O)C4CC4)cc3)n2)n[nH]1 [Tozasertib] (partner 0.1 µM)
Summary of the method: as §1

[2] = compound: CCn1c(-c2nonc2N)nc2c(C#CC(C)(C)O)ncc(OC[C@H]3CCCNC3)c21 + CS(=O)(=O)CCNCc1ccc(-c2ccc3ncnc(Nc4ccc(OCc5cccc(F)c5)c(Cl)c4)c3c2)o1 [Lapatinib] (partner 2 µM)
Summary of the method: as §1

[3] = compound: CCn1c(-c2nonc2N)nc2c(C#CC(C)(C)O)ncc(OC[C@H]3CCCNC3)c21 + CC(=O)c1c(C)c2cnc(Nc3ccc(N4CCNCC4)cn3)nc2n(C2CCCC2)c1=O [Palbociclib] (partner 0.5 µM)
Summary of the method: as §1

UMC-11 showed a relative viability ([1]; first compound 0.01 µM) of 0.402, a relative viability ([1]; first compound 0.03162 µM) of 0.391 and a relative viability ([1]; first compound 0.1 µM) of 0.655. It also gave a relative viability ([1]; first compound 0.3162 µM) of 0.392, a relative viability ([1]; first compound 1 µM) of 0.359 and a relative viability (BAM7 + Tozasertib; first compound 0.5 µM) of 0.2. The relative viability (BAM7 + Tozasertib; first compound 5 µM) was 0.202, the relative viability (BAM7 + Tozasertib; first compound 15.81 µM) was 0.196 and the relative viability (BAM7 + Tozasertib; first compound 50 µM) was 0.198. It also gave a relative viability ([2]; first compound 0.01 µM) of 1.08, a relative viability ([2]; first compound 0.03162 µM) of 0.987 and a relative viability ([2]; first compound 0.1 µM) of 0.952. It also gave a relative viability ([2]; first compound 0.3162 µM) of 0.818, a relative viability ([2]; first compound 1 µM) of 1.08 and a relative viability ([3]; first compound 0.01 µM) of 0.292. The relative viability ([3]; first compound 0.03162 µM) was 0.291, the relative viability ([3]; first compound 0.1 µM) was 0.305 and the relative viability ([3]; first compound 0.3162 µM) was 0.329. The relative viability ([3]; first compound 1 µM) was 0.339.
